Counter-ions that a name gives are not always drawn. Like-named read-outs stand apart in the source and are kept apart here.
How the values were obtained:
[1] = Solubility comparison in various solvents
Method: Compounds were dissolved in each solvent under constant stirring and temperature.

[2] = system: SKOV-3 (ATCC #HTB-77) (ovarian); details: SKOV-3 (OVARIAN); NCI GI50 values; read-out: GI50 (drug concentration that produces 50% cell growth inhibition); cited from earlier work
[3] = system: HCT-116 (ATCC #CCL-247) (colorectal); details: HCT-116 (COLON); NCI GI50 values; read-out: GI50 (drug concentration that produces 50% cell growth inhibition); cited from earlier work
[4] = system: HCT-15 (ATCC #CCL-225) (colorectal); details: HCT-15 (COLON); NCI GI50 values; read-out: GI50 (drug concentration that produces 50% cell growth inhibition); cited from earlier work
[5] = system: NCI-H460 (ATCC #HTB-177) (non-small cell lung); details: H460 (NSCLC); NCI GI50 values; read-out: GI50 (drug concentration that produces 50% cell growth inhibition); cited from earlier work
[6] = system: NCI-H460 (ATCC #HTB-177) (non-small cell lung); assay type: cell-based; details: for GI50: read-out: GI50 (drug concentration that produces 50% cell growth inhibition); for GI50 (drug concentration that produces 50% cell growth inhibition): result in words
[7] = system: HCT-15 (ATCC #CCL-225) (colorectal); assay type: cell-based; details: for GI50: read-out: GI50 (drug concentration that produces 50% cell growth inhibition); for GI50 (drug concentration that produces 50% cell growth inhibition): result in words
[8] = system: SKOV-3 (ATCC #HTB-77) (ovarian); assay type: cell-based; details: for GI50: read-out: GI50 (drug concentration that produces 50% cell growth inhibition); for GI50 (drug concentration that produces 50% cell growth inhibition): result in words
[9] = system: HCT-116 (ATCC #CCL-247) (colorectal); assay type: cell-based; details: for GI50: read-out: GI50 (drug concentration that produces 50% cell growth inhibition); for GI50 (drug concentration that produces 50% cell growth inhibition): result in words

| Structure (SMILES) | GI50 [2] [nM] | GI50 [3] [nM] | GI50 [5] [nM] | GI50 ([6]; H460 (NSCLC), 48 hours) [nM] | GI50 ([7]; HCT-15 (COLON), 48 hours) [nM] | GI50 ([9]; HCT-116 (COLON), 48 hours) [nM] | GI50 (drug concentration that produces 50% cell growth inhibition) ([8]; SKOV-3 (OVARIAN), 48 hours) | other results |
| --- | --- | --- | --- | --- | --- | --- | --- | --- |
| CC[C@@]1(O)C(=O)OCc2c1cc1n(c2=O)Cc2cc3ccccc3nc2-1 [Camptothecin, camptothecin] | 25 | 40 | 16 |  |  |  |  | Solubility ([1]; Acetonitrile, r.t.): 0.09 mg/g; Solubility ([1]; Soybean Oil USP, r.t.): 0.00 mg/g; GI50 [4]: 160 nM |
| CCc1c2c(nc3ccc(OC(=O)CC4(CC(=O)O[C@H]5CC[C@@]6(C)C(=CC[C@H]7[C@@H]8CC[C@H]([C@H](C)CCCC(C)C)[C@@]8(C)CC[C@@H]76)C5)CCCC4)cc13)-c1cc3c(c(=O)n1C2)COC(=O)[C@]3(O)CC [Cholesterol 3,3-tetramethylene glutaric-10-(7-ethyl-10-hydroxycamptothecin)] |  |  |  | 871 | 12600 | 2000 |  | GI50 ([8]; SKOV-3 (OVARIAN), 48 hours): 295 nM |
| CC[C@@]1(OC(=O)CC2(CC(=O)O[C@H]3CC[C@@]4(C)C(=CC[C@H]5[C@@H]6CC[C@H]([C@H](C)CCCC(C)C)[C@@]6(C)CC[C@@H]54)C3)CCCC2)C(=O)OCc2c1cc1n(c2=O)Cc2cc3ccccc3nc2-1 [Cholesterol 3,3-tetramethylene glutaric-20-camptothecin] |  |  |  | ~10000 | ~10000 | ~10000 | poor |  |
| CCc1c2c(nc3ccc(OC(=O)CC(C)CC(=O)O[C@H]4CC[C@@]5(C)C(=CC[C@H]6[C@@H]7CC[C@H]([C@H](C)CCCC(C)C)[C@@]7(C)CC[C@@H]65)C4)cc13)-c1cc3c(c(=O)n1C2)COC(=O)[C@]3(O)CC (stereo partly drawn) [Cholesterol 3-methyl glutaric-10-SN38, Cholesterol 3-methylglutaric-10-(7-ethyl-10-hydroxycamptothecin)] |  |  |  | 245 | 2880 | 263 | poor |  |
| CC[C@@]1(OC(=O)CC(C)CC(=O)O[C@H]2CC[C@@]3(C)C(=CC[C@H]4[C@@H]5CC[C@H]([C@H](C)CCCC(C)C)[C@@]5(C)CC[C@@H]43)C2)C(=O)OCc2c1cc1n(c2=O)Cc2cc3ccccc3nc2-1 (stereo partly drawn) [Cholesterol 3-methyl glutaric-20-CPT, Cholesterol 3-Methyglutaric-20-Camptothecin] |  |  |  |  |  |  | poor | GI50 (drug concentration that produces 50% cell growth inhibition) ([6]; H460 (NSCLC), 48 hours): poor; GI50 (drug concentration that produces 50% cell growth inhibition) ([7]; HCT-15 (COLON), 48 hours): poor; GI50 (drug concentration that produces 50% cell growth inhibition) ([9]; HCT-116 (COLON), 48 hours): poor |
| CCc1c2c(nc3ccc(OC(=O)O[C@H]4CC[C@@]5(C)C(=CC[C@H]6[C@@H]7CC[C@H]([C@H](C)CCCC(C)C)[C@@]7(C)CC[C@@H]65)C4)cc13)-c1cc3c(c(=O)n1C2)COC(=O)[C@]3(O)CC [Cholesterol formate-10-SN38, Cholesterol formate-10-(7-ethyl-10-hydroxycamptothecin)] |  |  |  | 10.5 | 1910 | 631 |  | Solubility ([1]; Acetonitrile, r.t.): <1 mg/g; Solubility ([1]; Chloroform, r.t.): >40 mg/g; Solubility ([1]; Soybean Oil USP, r.t.): <1 mg/g; Solubility ([1]; Vitamin E USP/NF, 65 °C): >14 mg/g; GI50 ([8]; SKOV-3 (OVARIAN), 48 hours): 51.4 nM |
| CC[C@@]1(OC(=O)O[C@H]2CC[C@@]3(C)C(=CC[C@H]4[C@@H]5CC[C@H]([C@H](C)CCCC(C)C)[C@@]5(C)CC[C@@H]43)C2)C(=O)OCc2c1cc1n(c2=O)Cc2cc3ccccc3nc2-1 [Cholesterol formate-20-CPT, Cholesterol Formate-20-camptothecin] |  |  |  |  |  |  | poor | Solubility ([1]; Acetonitrile, r.t.): <1 mg/g; Solubility ([1]; Chloroform, r.t.): >335 mg/g; Solubility ([1]; Soybean Oil USP, r.t.): >2 mg/g; Solubility ([1]; Vitamin E USP/NF, 65 °C): >32 mg/g; GI50 (drug concentration that produces 50% cell growth inhibition) ([6]; H460 (NSCLC), 48 hours): poor; GI50 (drug concentration that produces 50% cell growth inhibition) ([7]; HCT-15 (COLON), 48 hours): poor; GI50 (drug concentration that produces 50% cell growth inhibition) ([9]; HCT-116 (COLON), 48 hours): poor |
| CCc1c2c(nc3ccc(OC(=O)CCC(=O)O[C@H]4CC[C@@]5(C)C(=CC[C@H]6[C@@H]7CC[C@H]([C@H](C)CCCC(C)C)[C@@]7(C)CC[C@@H]65)C4)cc13)-c1cc3c(c(=O)n1C2)COC(=O)[C@]3(O)CC [Cholesterol succinate-10-SN38, Cholesterol succinate-10-(7-ethyl-10-hydroxycamptothecin)] |  |  |  |  |  |  |  | GI50 [6]: 1660 nM; GI50 [7]: 635 nM; GI50 [8]: 708 nM; GI50 [9]: 339 nM |
| CC[C@@]1(OC(=O)CCC(=O)O[C@H]2CC[C@@]3(C)C(=CC[C@H]4[C@@H]5CC[C@H]([C@H](C)CCCC(C)C)[C@@]5(C)CC[C@@H]43)C2)C(=O)OCc2c1cc1n(c2=O)Cc2cc3ccccc3nc2-1 [Cholesterol succinate-20-CPT, Cholesterol succinate-20-camptothecin] |  |  |  | > 5000 | > 5000 | > 5000 |  | GI50 ([8]; SKOV-3 (OVARIAN), 48 hours): > 5000 nM |
| CCc1c2c(nc3ccc(OC(=O)N4CCC(N5CCCCC5)CC4)cc13)-c1cc3c(c(=O)n1C2)COC(=O)[C@]3(O)CC [Irinotecan, irinotecan] | 17 | 7900 | 5010 |  |  |  |  |  |
| CCc1c2c(nc3ccc(O)cc13)-c1cc3c(c(=O)n1C2)COC(=O)[C@]3(O)CC [SN38, 7-ethyl-10-hydroxycamptothecin] | 1 | 21 | 1.4 |  |  |  |  | GI50 [4]: 7.9 nM |
| CC[C@@]1(O)C(=O)OCc2c1cc1n(c2=O)Cc2cc3c(CN(C)C)c(O)ccc3nc2-1 [Topotecan, topotecan] | 63 | 39.8 | 19.9 |  |  |  |  | GI50 [4]: 501 nM |
